Reference: patent publication US5624923A, “Tricyclic diazepine vasopressin antagonists and oxytocin antagonists” (priority 1995, dated 1997)
Values belong to the molecule of their own block, whether it stands above or below them.

Key:
[1] = biological target: T1, Rat Kidney Medullary V2 Receptors (Rattus norvegicus, UniProt Q00788); assay: Binding Assay to Rat Kidney Medullary V2 Receptors; conditions: for IC50: rat kidney medulla membranes, read-out: V2 IC50
T1 construct: Medullary tissues from rat kidneys are dissected out; from tissue; host or cells: rat kidney medulla membranes
T1 sequence (Q00788 whole entry): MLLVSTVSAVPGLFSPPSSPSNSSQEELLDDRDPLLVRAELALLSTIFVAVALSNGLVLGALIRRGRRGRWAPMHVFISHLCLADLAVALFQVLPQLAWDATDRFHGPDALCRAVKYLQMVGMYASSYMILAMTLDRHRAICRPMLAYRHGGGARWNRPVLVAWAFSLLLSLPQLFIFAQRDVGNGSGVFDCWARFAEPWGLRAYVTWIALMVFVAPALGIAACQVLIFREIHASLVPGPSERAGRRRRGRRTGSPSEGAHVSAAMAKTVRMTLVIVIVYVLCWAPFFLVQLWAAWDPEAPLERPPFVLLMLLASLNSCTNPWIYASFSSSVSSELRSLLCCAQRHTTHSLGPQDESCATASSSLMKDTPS
Procedure, shortened: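 Membranes were prepared from rat kidney medulla and stored in 50.0 mM Tris-HCl pH 7.4 with 0.2% BSA and 0.1 mM PMSF. Radioligand competition ran 120 min at bench temperature, with 1.0 μM unlabeled ligand defining nonspecific binding. Compounds were added in 50% DMSO; filtration, tritium scintillation counting, IC50 from competition analysis.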

[2] = biological target: T2, Rat Hepatic V1 Receptors (Rattus norvegicus, UniProt P30560); assay: Binding Assay to Rat Hepatic V1 Receptors; conditions: for IC50: rat liver membranes, read-out: V1 IC50
T2 construct: Rat liver plasma membranes expressing the vasopressin V1 receptor subtypes; from tissue; host or cells: rat liver plasma membranes
T2 sequence (P30560 whole entry): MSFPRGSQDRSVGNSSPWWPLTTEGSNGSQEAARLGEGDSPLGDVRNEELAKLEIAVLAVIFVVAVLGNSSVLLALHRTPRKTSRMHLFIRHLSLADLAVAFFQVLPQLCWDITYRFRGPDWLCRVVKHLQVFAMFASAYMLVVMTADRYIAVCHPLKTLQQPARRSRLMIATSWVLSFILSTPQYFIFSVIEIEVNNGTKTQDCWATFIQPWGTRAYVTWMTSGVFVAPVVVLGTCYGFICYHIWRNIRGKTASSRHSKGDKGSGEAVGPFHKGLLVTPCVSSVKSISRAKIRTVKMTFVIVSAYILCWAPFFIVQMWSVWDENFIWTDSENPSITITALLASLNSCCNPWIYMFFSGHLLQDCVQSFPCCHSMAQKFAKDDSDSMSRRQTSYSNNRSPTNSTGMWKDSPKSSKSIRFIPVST

[3] = tested on: Vasopressin V1; assay: Vasopressin V1 Antagonist Activity in Conscious Rats (vasopressin vasopressor response); format: in vivo, rat; design: Average Change: unit not given here; conditions: for % Inhibition / Average Change: SHR
Procedure, shortened: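 Conscious rats are restrained supine, and under local 2% procaine a PE 10/20 cannula is passed through the ventral caudal tail artery into the lower abdominal aorta. The caudal vein is cannulated for intravenous dosing. Blood pressure is recorded with a Statham P23Db transducer, and vasopressin injections are repeated after compound dosing. Percent antagonism is calculated against the pre-drug vasopressor response taken as 100%.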

[4] = tested on: Vasopressin V2; assay: Vasopressin V2 Antagonist Activity in Conscious Hydrated Rats; format: in vivo, rat; conditions: AVP 0.4 μg/kg i.p.
Protocol: Vasopressin V2 Antagonist Activity in Conscious Hydrated Rats
Conscious hydrated rats are treated with compounds under study from 0.1 to 100 mg/kg orally or vehicle. Two to four rats are used for each compound. One hour later, arginine vasopressin (AVP, antidiuretic hormore, ADH) dissolved in peanut oil is administered at 0.4 μg/kg intraperitoneally. Two rats in each test would not receive arginine vasopressin but only the vehicle (peanut oil) to serve as water-loading control. Twenty minutes later each rat is given 30 mL/kg of deionized water orally by gavage and is placed individually in a metabolic cage equipped with a funnel and a graduated glass cylinder to collect urine for four hours. Urine volume is measured and osmolality analyzed by use of a Fiske One-Ten osmometer (Fiske Assoc., Norwood, Mass., USA). Urinary sodium, potassium, and chloride are analyzed by use of ion-specific electrodes in a Beckman E3 (Electrolyte 3) Analyzer.

[5] = 10 mg/kg i.v., VAS 0.01 i.u./kg, 30 min
[6] = 10 mg/kg i.v., VAS 0.02 i.u./kg, 30 min
[7] = 20 mg/kg i.v., VAS 0.01 i.u./kg, 60 min
[8] = 20 mg/kg i.v., VAS 0.01 i.u./kg, 90 min
[9] = 20 mg/kg i.v., VAS 0.01 i.u./kg, 120 min
[10] = 20 mg/kg i.v., VAS 0.01 i.u./kg, 180 min
[11] = 20 mg/kg i.v., VAS 0.01 i.u./kg, 240 min
[12] = 20 mg/kg i.v., VAS 0.01 i.u./kg, 300 min
[13] = 20 mg/kg i.v., VAS 0.02 i.u./kg, 60 min
[14] = 20 mg/kg i.v., VAS 0.02 i.u./kg, 90 min
[15] = 20 mg/kg i.v., VAS 0.02 i.u./kg, 120 min
[16] = 20 mg/kg i.v., VAS 0.02 i.u./kg, 180 min
[17] = 20 mg/kg i.v., VAS 0.02 i.u./kg, 240 min
[18] = 20 mg/kg i.v., VAS 0.02 i.u./kg, 300 min
[19] = 10 mg/kg i.v., VAS 0.01 i.u./kg, 60 min
[20] = 10 mg/kg i.v., VAS 0.01 i.u./kg, 90 min
[21] = 10 mg/kg i.v., VAS 0.01 i.u./kg, 120 min
[22] = 10 mg/kg i.v., VAS 0.01 i.u./kg, 180 min
[23] = 10 mg/kg i.v., VAS 0.01 i.u./kg, 240 min
[24] = 10 mg/kg i.v., VAS 0.01 i.u./kg, 300 min
[25] = 10 mg/kg i.v., VAS 0.02 i.u./kg, 60 min
[26] = 10 mg/kg i.v., VAS 0.02 i.u./kg, 90 min
[27] = 10 mg/kg i.v., VAS 0.02 i.u./kg, 120 min
[28] = 10 mg/kg i.v., VAS 0.02 i.u./kg, 180 min
[29] = 10 mg/kg i.v., VAS 0.02 i.u./kg, 240 min
[30] = 10 mg/kg i.v., VAS 0.02 i.u./kg, 300 min

- inhibition at 10 µM ([1]; 10 μM, rat): 71%
- inhibition at 10 µM ([2]; 2 h, 10 μM, rat): 23%
SMILES: O=C(Nc1ccc(C(=O)N2Cc3cccn3Cc3ccccc32)cc1)c1sc2ccccc2c1Cl [Example 82, N-[4-(5H-Pyrrolo[2,1-c][1,4]benzodiazepin-10(11H)-ylcarbonyl)phenyl]-3-chlorobenzo[b]thiophene-2-carboxamide]
- % Inhibition [3, 5]: 24%
- Average Change [3, 5]: 36
- % Inhibition [3, 6]: -5%
- Average Change [3, 6]: 54
- % Inhibition [3, 7]: 67%
- Average Change [3, 7]: 15.5
- % Inhibition [3, 8]: 51%
- Average Change [3, 8]: 23.5
- % Inhibition [3, 9]: 65%
- Average Change [3, 9]: 16.5
- % Inhibition [3, 10]: 61%
- Average Change [3, 10]: 18.5
- % Inhibition [3, 11]: 39%
- Average Change [3, 11]: 29
- % Inhibition [3, 12]: 33%
- Average Change [3, 12]: 32
- % Inhibition [3, 13]: 28%
- Average Change [3, 13]: 37
- % Inhibition [3, 14]: 53%
- Average Change [3, 14]: 24
- % Inhibition [3, 15]: 25%
- Average Change [3, 15]: 38.5
- % Inhibition [3, 16]: 16%
- Average Change [3, 16]: 43.5
- % Inhibition [3, 17]: 18%
- Average Change [3, 17]: 42
- % Inhibition [3, 18]: -3%
- Average Change [3, 18]: 53
- Osmolality ([4]; 20 mg/kg orally): 1300 mOsm/kg
- Urine Volume ([4]; 20 mg/kg orally): 4.3 ml/4 hrs

- IC50 [1]: 0.025 µM
- IC50 [2]: 0.097 µM
SMILES: Cc1ccccc1NC(=O)c1ccc(C(=O)N2Cc3cccn3Cc3ccccc32)cc1 [Example 484, N-(2-Methylphenyl)-4-(5H-pyrrolo[2,1-c][1,4]-benzodiazepin-10(11H)-ylcarbonyl)benzamide]
- Max. % Inhibition ([3]; 10 mg/kg i.v.): 79%
- Time (of max. % inhibition) ([3]; 10 mg/kg i.v.): 300 min
- Max. % Inhibition ([3]; 30 mg/kg p.o.): 22%
- Time (of max. % inhibition) ([3]; 30 mg/kg p.o.): 180 min
- Osmolality ([4]; 10 mg/kg orally): 785 mOsm/kg
- Urine Volume ([4]; 10 mg/kg orally): 8 ml/4 hrs

- IC50 [1]: 0.025 µM
- IC50 [2]: 0.015 µM
SMILES: Cc1ccsc1C(=O)Nc1ccc(C(=O)N2Cc3cccn3Cc3ccccc32)cc1 [Example 5, N-[4-(5H-pyrrolo[2,1-c][1,4]benzodiazepin10(11H)-ylcarbonyl)phenyl]-3-methyl-2-thiophenecarboxamide]
- % Inhibition [3, 5]: 83%
- Average Change [3, 5]: 5.5
- % Inhibition [3, 19]: 76%
- Average Change [3, 19]: 7.5
- % Inhibition [3, 20]: 71%
- Average Change [3, 20]: 9
- % Inhibition [3, 21]: 59%
- Average Change [3, 21]: 13
- % Inhibition [3, 22]: 62%
- Average Change [3, 22]: 12
- % Inhibition [3, 23]: 46%
- Average Change [3, 23]: 17
- % Inhibition [3, 24]: 5%
- Average Change [3, 24]: 30
- % Inhibition [3, 6]: 72%
- Average Change [3, 6]: 13.5
- % Inhibition [3, 25]: 78%
- Average Change [3, 25]: 10.5
- % Inhibition [3, 26]: 83%
- Average Change [3, 26]: 8
- % Inhibition [3, 27]: 69%
- Average Change [3, 27]: 15
- % Inhibition [3, 28]: 60%
- Average Change [3, 28]: 19
- % Inhibition [3, 29]: 51%
- Average Change [3, 29]: 23.5
- % Inhibition [3, 30]: 18%
- Average Change [3, 30]: 39.5
- Osmolality ([4]; 10 mg/kg orally): 1079 mOsm/kg
- Urine Volume ([4]; 10 mg/kg orally): 8.5 ml/4 hrs
- Osmolality ([4]; 30 mg/kg orally): 955 mOsm/kg
- Urine Volume ([4]; 30 mg/kg orally): 7.7 ml/4 hrs

- IC50 [1]: 0.016 µM
- IC50 [2]: 0.011 µM
SMILES: O=C(Nc1ccc(C(=O)N2Cc3cccn3Cc3ccccc32)cc1)C1CCCCC1 [Example 358, N-[4-(5H-Pyrrolo[2,1-c][1,4]benzodiazepin-10(11)ylcarbonyl)phenyl]-cyclohexanecarboxamide]
- % Inhibition [3, 5]: 67%
- Average Change [3, 5]: 12
- % Inhibition [3, 19]: 64%
- Average Change [3, 19]: 13
- % Inhibition [3, 20]: 52%
- Average Change [3, 20]: 17.5
- % Inhibition [3, 21]: 78%
- Average Change [3, 21]: 8
- % Inhibition [3, 22]: 52%
- Average Change [3, 22]: 17.5
- % Inhibition [3, 23]: 67%
- Average Change [3, 23]: 12
- % Inhibition [3, 24]: 48%
- Average Change [3, 24]: 19
- % Inhibition [3, 6]: 39%
- Average Change [3, 6]: 24
- % Inhibition [3, 25]: 75%
- Average Change [3, 25]: 10
- % Inhibition [3, 26]: 72%
- Average Change [3, 26]: 11
- % Inhibition [3, 27]: 65%
- Average Change [3, 27]: 14
- % Inhibition [3, 28]: 63%
- Average Change [3, 28]: 14.5
- % Inhibition [3, 29]: 61%
- Average Change [3, 29]: 15.5
- % Inhibition [3, 30]: 59%
- Average Change [3, 30]: 16
- Osmolality ([4]; 30 mg/kg orally): 875 mOsm/kg
- Urine Volume ([4]; 30 mg/kg orally): 5.5 ml/4 hrs
